Measured values: patent US6479437B1, “Herbicidal mixture containing a 3-heterocyclyl-substituted benzoyl derivative” (priority 1998, dated 2002)

Assays:
Assay type in all cases: in vivo
Details in all cases: adjuvant 0.25 and ENSOL 28 0.375 kg/ha where added, scale 0-100
[1] = tested on: ECHCG (Echinochloa crus-galli, barnyardgrass); experiment: Selective herbicidal activity post-emergence in the greenhouse
Experimental: (§1) The culture containers used were plastic pots containing loamy sand with approximately 3.0% of humus as substrate. The seeds of the test plants were sown separately for each species.
(§2) For the post-emergence treatment, the test plants were grown to a plant height of from 3 to 15 cm, depending on the plant habit, and only then treated with the herbicidal mixture which had been suspended or emulsified in water. To this end, the test plants were either sown directly and grown in the same containers, or they were first grown separately as seedlings and transplanted into the test containers a few days prior to treatment.
(§3) Depending on the species, the plants were kept at 10-25° C. or 20-35° C. The test period extended over 2 to 4 weeks. During this time, the plants were tended, and their response to the individual treatments was evaluated.
(§4) Evaluation was carried out using a scale of from 0 to 100. 100 means no emergence of the plants, or complete destruction of at least the aerial parts, and 0 means no damage or normal course of growth.

[2] = tested on: POLPE (Polygonum persicaria, lady's thumb); experiment: as above
Experimental: as §1, §2, §3, §4

[3] = tested on: CHEAL (Chenopodium album, lambsquarters); experiment: as above
Experimental: as §1, §2, §3, §4

[4] = tested on: ABUTH (Abutilon theophrasti, velvetleaf); experiment: as above
Experimental: as §1, §2, §3, §4

[5] = tested on: SETVI (Setaria viridis, green foxtail); experiment: as above
Experimental: as §1, §2, §3, §4

[6] = tested on: ZEAMX (Zea mays, corn); experiment: Selective herbicidal activity post-emergence in the greenhouse (crop phytotoxicity)
Experimental: as §1, §2, §3, §4

[7] = Table 5, EX. 1 0.0312 kg/ha a.s.
[8] = Table 8, EX. 1 0.0625 kg/ha a.s.
[9] = Table 17, EX. 1 0.0078 kg/ha a.s.
[10] = Table 19, EX. 1 0.0078 kg/ha a.s.
[11] = Table 21, EX. 1 0.0078 kg/ha a.s.
[12] = Table 1, EX. 1 0.0078 kg/ha a.s.
[13] = Table 2, EX. 1 0.0625 kg/ha a.s.
[14] = Table 11, EX. 1 0.0078 kg/ha a.s.
[15] = Table 20, EX. 1 0.0078 kg/ha a.s.

## Cn1ncc(C(=O)c2ccc(S(C)(=O)=O)c(C3=NOCC3)c2Cl)c1O [EX. 1]
[1]; Table 3, EX. 1 0.0625 kg/ha a.s.
  Phytotoxicity ECHCG: 50
[1]; [7]
  Phytotoxicity ECHCG: 030
[1]; [8]
  Phytotoxicity ECHCG: 50
[1]; Table 9, EX. 1 0.0625 kg/ha a.s.
  Phytotoxicity ECHCG: 50
[1]; Table 15, EX. 1 0.0625 kg/ha a.s.
  Phytotoxicity ECHCG: 50
[2]; [9]
  Phytotoxicity POLPE: 20
[2]; Table 18, EX. 1 0.0078 kg/ha a.s.
  Phytotoxicity POLPE: 70
[2]; [10]
  Phytotoxicity POLPE: 70
[2]; [11]
  Phytotoxicity POLPE: 70
[3]; [12]
  Phytotoxicity CHEAL: 20
[3]; [13]
  Phytotoxicity CHEAL: 50
[3]; Table 6, EX. 1 0.0078 kg/ha a.s.
  Phytotoxicity CHEAL: 20
[3]; Table 7, EX. 1 0.0156 kg/ha a.s.
  Phytotoxicity CHEAL: 20
[3]; Table 10, EX. 1 0.0078 kg/ha a.s.
  Phytotoxicity CHEAL: 20
[3]; [14]
  Phytotoxicity CHEAL: 20
[3]; Table 12, EX. 1 0.0156 kg/ha a.s.
  Phytotoxicity CHEAL: 20
[3]; Table 13, EX. 1 0.0156 kg/ha a.s.
  Phytotoxicity CHEAL: 20
[3]; Table 14, EX. 1 0.0156 kg/ha a.s.
  Phytotoxicity CHEAL: 20
[4]; Table 4, EX. 1 0.0156 kg/ha a.s.
  Phytotoxicity ABUTH: 20
[4]; [7]
  Phytotoxicity ABUTH: 75
[4]; Table 16, EX. 1 0.0156 kg/ha a.s.
  Phytotoxicity ABUTH: 20
[5]; [14]
  Phytotoxicity SETVI: 30
[5]; [9]
  Phytotoxicity SETVI: 30
[5]; [10]
  Phytotoxicity SETVI: 40
[5]; [15]
  Phytotoxicity SETVI: 40
[5]; [11]
  Phytotoxicity SETVI: 40
[6]; [12]
  Phytotoxicity ZEAMX: 0
[6]; [13]
  Phytotoxicity ZEAMX: 0
[6]; [8]
  Phytotoxicity ZEAMX: 0
[6]; [15]
  Phytotoxicity ZEAMX: 0
